Test results as given in patent US8338436B2, “Amorphous form of N-{2-fluoro-5-[3-(thiophene-2-carbonyl)-pyrazolo[1,5-a]pyrimidin-7-yl]-phenyl}-N-methyl-acetamide” (Ferrer International, S.A., priority 2006, dated 2012).

Columns and labels:
[1] = Solubility of solid forms of compound (I)
[2] = tested on: GABAA (γ-aminobutyric acidA) receptors; assay: GABAA receptor ligand activity; assay type: binding; conditions: amorphous form, stated to be like crystalline compound (I)
[3] = tested on: GABAA (γ-aminobutyric acidA) receptors; conditions: as described in PCT/EP2006/063243 and U.S. 60/692866; cited from earlier work

Question: For `CC(=O)N(C)c1cc(-c2ccnc3c(C(=O)c4cccs4)cnn23)ccc1F` [amorphous form, N-{2-Fluoro-5-[3-(thiophene-2-carbonyl)-pyrazolo[1,5-a]pyrimidin-7-yl]-phenyl}-N-methyl-acetamide], which “solubility of the amorphous form relative to crystalline product” value ([1]; amorphous versus crystalline product) is on record?
Answer: about twice as high

Question: And the “ligand of GABAA” value [2]?
Answer: potent ligand

Question: With `CC(=O)N(C)c1cc(-c2ccnc3c(C(=O)c4cccs4)cnn23)ccc1F` [crystalline form of compound (I), N-{2-Fluoro-5-[3-(thiophene-2-carbonyl)-pyrazolo[1,5-a]pyrimidin-7-yl]-phenyl}-N-methyl-acetamide] as the molecule, how does the solubility ([1]; crystalline form, qualitative statement) read?
Answer: very low soluble

Question: For `CC(=O)N(C)c1cc(-c2ccnc3c(C(=O)c4cccs4)cnn23)ccc1F` [compound (I), N-{2-Fluoro-5-[3-(thiophene-2-carbonyl)-pyrazolo[1,5-a]pyrimidin-7-yl]-phenyl}-N-methyl-acetamide], which “ligand of GABAA receptors” value [3] is on record?
Answer: potent ligand
